The values below come from patent publication US20080234262A1 (Wyeth, priority 2007, published 2008).

Assay [1] concerns the target PI3K (Homo sapiens, UniProt P42336). The assay is described as follows: Fluorescence polarization assay for PI3K.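 Note: PI3K kinase reaction on PIP2 with ATP, 30-60 min, product sensed by GST-GRP with red probe in fluorescence polarization (mP), controls without enzyme and at zero time.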 Type of assay: biochemical. To be noted: PI3Kα; read-out: PI3Kα IC50.
The subject of assay [2] is prostate line LNCap. In words: In vitro cell culture growth assay (MTS), LNCap. In kind it is cell-based, human. To be noted: LNCap cells, three days after drug treatment.
The test system of assay [3] is breast line MDA468. The assay is described as follows: In vitro cell culture growth assay (MTS), MDA468. Type of assay: cell-based, human. To be noted: MDA468 cells, three days after drug treatment. Summed up:
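Cells were plated and, one day later, exposed to inhibitors for three days; viable cell density was then measured by metabolic conversion of MTS dye, read as absorbance at 490 nm. Growth is expressed as percent of vehicle-treated control cells on the same plate.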

Chain of PI3K (P42336 whole entry): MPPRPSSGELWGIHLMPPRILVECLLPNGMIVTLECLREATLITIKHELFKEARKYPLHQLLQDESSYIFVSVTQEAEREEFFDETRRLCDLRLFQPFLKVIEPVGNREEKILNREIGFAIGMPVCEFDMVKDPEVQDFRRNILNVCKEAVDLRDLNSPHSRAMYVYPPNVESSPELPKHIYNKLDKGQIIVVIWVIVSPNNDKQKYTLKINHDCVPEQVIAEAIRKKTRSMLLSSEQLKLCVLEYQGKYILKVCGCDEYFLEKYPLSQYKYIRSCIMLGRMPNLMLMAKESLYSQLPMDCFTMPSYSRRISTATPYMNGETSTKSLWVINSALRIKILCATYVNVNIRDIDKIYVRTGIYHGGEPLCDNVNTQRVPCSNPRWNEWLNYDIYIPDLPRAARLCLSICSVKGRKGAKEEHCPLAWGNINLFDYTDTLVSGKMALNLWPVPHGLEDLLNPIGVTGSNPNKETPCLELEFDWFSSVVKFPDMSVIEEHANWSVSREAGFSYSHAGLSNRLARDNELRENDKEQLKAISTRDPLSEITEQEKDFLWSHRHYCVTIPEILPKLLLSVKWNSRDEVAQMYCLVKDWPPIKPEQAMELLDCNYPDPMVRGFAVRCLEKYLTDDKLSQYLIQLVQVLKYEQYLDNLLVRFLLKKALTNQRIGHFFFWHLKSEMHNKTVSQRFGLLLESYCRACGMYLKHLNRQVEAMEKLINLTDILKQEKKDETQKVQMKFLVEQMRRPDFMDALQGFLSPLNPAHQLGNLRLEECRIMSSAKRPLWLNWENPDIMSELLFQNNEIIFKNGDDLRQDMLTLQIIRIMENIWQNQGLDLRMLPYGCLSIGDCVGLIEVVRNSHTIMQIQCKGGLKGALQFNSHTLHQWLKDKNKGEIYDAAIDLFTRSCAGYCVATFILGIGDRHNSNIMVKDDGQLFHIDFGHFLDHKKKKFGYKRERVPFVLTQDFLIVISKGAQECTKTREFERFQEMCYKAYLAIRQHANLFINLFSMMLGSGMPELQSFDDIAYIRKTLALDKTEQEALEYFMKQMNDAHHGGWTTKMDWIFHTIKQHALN
Chain of PI3K (P27986 whole entry partner): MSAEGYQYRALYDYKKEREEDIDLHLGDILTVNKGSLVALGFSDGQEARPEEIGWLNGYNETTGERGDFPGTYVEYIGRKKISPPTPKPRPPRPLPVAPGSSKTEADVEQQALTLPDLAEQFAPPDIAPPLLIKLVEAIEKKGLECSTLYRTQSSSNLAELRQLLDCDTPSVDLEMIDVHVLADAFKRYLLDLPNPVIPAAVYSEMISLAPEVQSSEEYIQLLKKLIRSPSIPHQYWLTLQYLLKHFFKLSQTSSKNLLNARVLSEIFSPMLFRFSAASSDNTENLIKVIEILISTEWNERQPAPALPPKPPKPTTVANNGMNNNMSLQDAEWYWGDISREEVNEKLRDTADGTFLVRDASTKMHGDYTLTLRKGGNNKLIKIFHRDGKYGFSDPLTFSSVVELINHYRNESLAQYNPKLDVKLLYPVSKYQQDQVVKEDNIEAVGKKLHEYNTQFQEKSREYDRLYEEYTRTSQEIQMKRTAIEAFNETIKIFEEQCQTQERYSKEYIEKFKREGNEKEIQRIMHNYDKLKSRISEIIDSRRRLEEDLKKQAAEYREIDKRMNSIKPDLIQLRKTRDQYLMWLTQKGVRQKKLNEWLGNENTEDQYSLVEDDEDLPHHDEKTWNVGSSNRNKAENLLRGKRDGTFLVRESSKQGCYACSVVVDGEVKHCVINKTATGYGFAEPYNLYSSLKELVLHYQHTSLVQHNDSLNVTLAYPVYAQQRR

Turning to `COC(=NC#N)Nc1ccc(-c2nc(N3CCOCC3)c3cnn(C4CCN(Cc5cccnc5)CC4)c3n2)cc1` [Compound 654, methyl N′-cyano-N-(4-{4-morpholin-4-yl-1-[1-(pyridin-3-ylmethyl)piperidin-4-yl]-1H-pyrazolo[3,4-d]pyrimidin-6-yl}phenyl)imidocarbamate], the figures for the IC50 in assay [1], in assay [2] and in assay [3] were 592 nM, 2200 nM and 1300 nM, respectively.
`CNC(=O)Nc1ccc(-c2nc(N3CCOCC3)c3cnn(C4CCC5(CC4)OCCO5)c3n2)cc1` [Compound 566, 1-{4-[1-(1,4-dioxaspiro[4.5]dec-8-yl)-4-morpholin-4-yl-1H-pyrazolo[3,4-d]pyrimidin-6-yl]phenyl}-3-methylurea]: the IC50 in assay [1] is 74 nM; in assay [2] (Homo sapiens, LNCaP, 72 h), less than 27 nM; in assay [3] (Homo sapiens, 72 h), 85 nM.
With `CCSC(=O)N1CCC(n2ncc3c(N4CCOCC4)nc(-c4ccc(NC(=O)NC)cc4)nc32)CC1` [Compound 762, S-ethyl 4-(6-{4-[(methylcarbamoyl)amino]phenyl}-4-morpholin-4-yl-1H-pyrazolo[3,4-d]pyrimidin-1-yl)piperidine-1-carbothioate], the IC50 in assay [1] was found to be 87 nM; in assay [2] (Homo sapiens, LNCaP, 72 h), 50 nM; in assay [3] (Homo sapiens, 72 h), 170 nM.
Regarding `Nc1ccc(-c2nc(N3CCOCC3)c3cnn(C4CCN(C(=O)c5cccnc5)CC4)c3n2)c(F)c1` [Compound 460, 3-fluoro-4-{4-morpholin-4-yl-1-[1-(pyridin-3-ylcarbonyl)piperidin-4-yl]-1H-pyrazolo[3,4-d]pyrimidin-6-yl}aniline], the half-maximal inhibitory concentration (IC50) is 4030 nM in assay [1]; 4900 nM in assay [2] (Homo sapiens, LNCaP, 72 h); 14000 nM in assay [3] (Homo sapiens, 72 h).
In the same order, the values of `CNC(=O)Nc1ccc(-c2nc(N3CCOCC3)c3cnn(C4CCN(S(C)(=O)=O)CC4)c3n2)cc1` [Compound 759, 1-methyl-3-(4-{1-[1-(methylsulfonyl)piperidin-4-yl]-4-morpholin-4-yl-1H-pyrazolo[3,4-d]pyrimidin-6-yl}phenyl)urea] are 78 nM, 400 nM and 480 nM.
On the same counts, the results for `COC(=O)Nc1ccc(-c2nc(N3CCOCC3)c3cnn(C4CCN(C(=O)c5ccccn5)CC4)c3n2)cc1` [Example 441, methyl (4-{4-morpholin-4-yl-1-[1-(pyridin-2-ylcarbonyl)piperidin-4-yl]-1H-pyrazolo[3,4-d]pyrimidin-6-yl}phenyl)carbamate] are 1920 nM, 200 nM and 600 nM.
In the same order, the values of `CNCCNC(=O)Nc1ccc(-c2nc(N3CCOCC3)c3cnn(C4CCN(Cc5cccnc5)CC4)c3n2)cc1` [Compound 589, 1-[2-(methylamino)ethyl]-3-(4-{4-morpholin-4-yl-1-[1-(pyridin-3-ylmethyl)piperidin-4-yl]-1H-pyrazolo[3,4-d]pyrimidin-6-yl}phenyl)urea] are 29 nM, 1200 nM and 1100 nM.
For `CNC(=O)Nc1ccc(-c2nc(N3CCOCC3)c3cnn(C4CCN(CC(=O)O)CC4)c3n2)cc1` [Compound 798, [4-(6-{4-[(methylcarbamoyl)amino]phenyl}-4-morpholin-4-yl-1H-pyrazolo[3,4-d]pyrimidin-1-yl)piperidin-1-yl]acetic acid], the IC50 in assay [1] was 438 nM; in assay [2] (Homo sapiens, LNCaP, 72 h), greater than 60000 nM; in assay [3] (Homo sapiens, 72 h), greater than 60000 nM.
Take `CNC(=O)Nc1ccc(-c2nc(N3CCOCC3)c3cnn(C4CCN(C(=O)NC)CC4)c3n2)cc1` [Compound 722, N-methyl-4-(6-{4-[(methylcarbamoyl)amino]phenyl}-4-morpholin-4-yl-1H-pyrazolo[3,4-d]pyrimidin-1-yl)piperidine-1-carboxamide]: the results for the IC50 in assay [1], in assay [2] and in assay [3] were 148 nM, 2200 nM and 1800 nM, respectively.
Regarding `NCCNC(=O)Nc1ccc(-c2nc(N3CCOCC3)c3cnn(C4CCN(Cc5ccccc5)CC4)c3n2)cc1` [Example 267, 1-(2-aminoethyl)-3-{4-[1-(1-benzylpiperidin-4-yl)-4-morpholin-4-yl-1H-pyrazolo[3,4-d]pyrimidin-6-yl]phenyl}urea], the IC50 in assay [1] was 14 nM; in assay [2] (Homo sapiens, LNCaP, 72 h), 2000 nM; in assay [3] (Homo sapiens, 72 h), 2700 nM.
In the same order, the values of `CC(C)C(=O)Nc1ccc(-c2nc(N3CCOCC3)c3cnn(C4CCN(Cc5ccccc5)CC4)c3n2)cc1` [Compound 186] are 3420 nM, 4000 nM and 3900 nM.
In the case of `COC(=O)N1CCC(n2ncc3c(N4CCOCC4)nc(-c4ccc(NC(=O)OCCN5CCOCC5)cc4)nc32)CC1` [Compound 906, methyl 4-[4-morpholin-4-yl-6-(4-{[(2-morpholin-4-ylethoxy)carbonyl]amino}phenyl)-1H-pyrazolo[3,4-d]pyrimidin-1-yl]piperidine-1-carboxylate], the IC50 was determined as 2040 nM in assay [1]; 5200 nM in assay [2] (Homo sapiens, LNCaP, 72 h); 23000 nM in assay [3] (Homo sapiens, 72 h).
On to `c1ccc(-n2ncc3c(N4CCOCC4)nc(-c4ccc[nH]4)nc32)cc1` [Compound 6], for which the IC50 is 1350 nM in assay [1]; 2400 nM in assay [2] (Homo sapiens, LNCaP, 72 h); 11000 nM in assay [3] (Homo sapiens, 72 h).
With `COC(=O)N1CCC(n2ncc3c(N4CCOCC4)nc(-c4ccc(NC(=O)OCCF)cc4)nc32)CC1` [Compound 865, methyl 4-[6-(4-{[(2-fluoroethoxy)carbonyl]amino}phenyl)-4-morpholin-4-yl-1H-pyrazolo[3,4-d]pyrimidin-1-yl]piperidine-1-carboxylate], the IC50 was determined as 2950 nM in assay [1]; 680 nM in assay [2] (Homo sapiens, LNCaP, 72 h); 4100 nM in assay [3] (Homo sapiens, 72 h).
Take `CNC(=O)Nc1ccc(-c2nc(N3CCOCC3)c3cnn(C4CCN(C(=O)c5ccccc5C)CC4)c3n2)cc1` [Compound 602, 1-methyl-3-(4-{1-[1-(2-methylbenzoyl)piperidin-4-yl]-4-morpholin-4-yl-1H-pyrazolo[3,4-d]pyrimidin-6-yl}phenyl)urea]: the IC50 in assay [1] is 93 nM; in assay [2] (Homo sapiens, LNCaP, 72 h), less than 27 nM; in assay [3] (Homo sapiens, 72 h), 70 nM.
On the same counts, the results for `CCCCNC(=O)Nc1ccc(-c2nc(N3CCOCC3)c3cnn(C4CCN(C(=O)c5cccnc5)CC4)c3n2)cc1` [Example 216, 1-butyl-3-(4-{4-morpholin-4-yl-1-[1-(pyridin-3-ylcarbonyl)piperidin-4-yl]-1H-pyrazolo[3,4-d]pyrimidin-6-yl}phenyl)urea] are 446 nM, 400 nM and 1500 nM.
In the case of `COCC(=O)N1CCC(n2ncc3c(N4CCOCC4)nc(-c4ccc5[nH]ccc5c4)nc32)CC1` [Example 40], the half-maximal inhibitory concentration (IC50) in assay [1] was found to be 3750 nM; in assay [2] (Homo sapiens, LNCaP, 72 h), 800 nM; in assay [3] (Homo sapiens, 72 h), 900 nM.
Turning to `Nc1ccnc(-c2nc(N3CCOCC3)c3cnn(-c4ccccc4)c3n2)c1` [Compound 681, 2-(4-morpholin-4-yl-1-phenyl-1H-pyrazolo[3,4-d]pyrimidin-6-yl)pyridin-4-amine], the IC50 is 1460 nM in assay [1], greater than 60000 nM in assay [2] and greater than 60000 nM in assay [3].
Regarding `c1ccc(-n2ncc3c(N4CCOCC4)nc(-c4cc5ccccc5o4)nc32)cc1` [Compound 112], the IC50 in assay [1] was found to be 1910 nM; in assay [2] (Homo sapiens, LNCaP, 72 h), 15000 nM; in assay [3] (Homo sapiens, 72 h), 60000 nM.
On the same counts, the results for `C=CC(=O)Nc1ccc(-c2nc(N3CCOCC3)c3cnn(C4CCN(C(=O)C(C)C)CC4)c3n2)cc1` [Compound 947, N-{4-[1-(1-isobutyrylpiperidin-4-yl)-4-morpholin-4-yl-1H-pyrazolo[3,4-d]pyrimidin-6-yl]phenyl}acrylamide] are 1600 nM, 980 nM and 4800 nM.
In the same order, the values of `CC(C)OC(=O)N1CCC(n2ncc3c(N4CCOCC4)nc(-c4ccc(NC(=O)Nc5ccccc5)cc4)nc32)CC1` [Compound 836, isopropyl 4-(6-{4-[(anilinocarbonyl)amino]phenyl}-4-morpholin-4-yl-1H-pyrazolo[3,4-d]pyrimidin-1-yl)piperidine-1-carboxylate] are 56 nM, 58 nM and 170 nM.
In the same order, the values of `CN(C)CC(=O)Nc1ccc(-c2nc(N3CCOCC3)c3cn[nH]c3n2)cc1` [Compound 527, N^2,N^2-dimethyl-N-[4-(4-morpholin-4-yl-1H-pyrazolo[3,4-d]pyrimidin-6-yl)phenyl]glycinamide] are 2270 nM, 7000 nM and 18000 nM.
Consider `CNC(=O)Nc1ccc(-c2nc(N3CCOCC3)c3cnn(C4CCN(CC(F)(F)F)CC4)c3n2)cc1` [Compound 714, 1-methyl-3-(4-{4-morpholin-4-yl-1-[1-(2,2,2-trifluoroethyl)piperidin-4-yl]-1H-pyrazolo[3,4-d]pyrimidin-6-yl}phenyl)urea], for which the IC50 stood at 186 nM in assay [1], 56 nM in assay [2] and 320 nM in assay [3].
In the case of `NC(=O)c1ccc(-c2nc(N3CCOCC3)c3cnn(-c4ccccc4)c3n2)cc1` [Compound 100], the IC50 in assay [1] worked out at 359 nM; in assay [2] (Homo sapiens, LNCaP, 72 h), 60000 nM; in assay [3] (Homo sapiens, 72 h), 60000 nM.
With `COC(=O)N1CCC(n2ncc3c(N4CCOCC4)nc(-c4ccc(NC(=O)OCCO)cc4)nc32)CC1` [Compound 901, methyl 4-[6-(4-{[(2-hydroxyethoxy)carbonyl]amino}phenyl)-4-morpholin-4-yl-1H-pyrazolo[3,4-d]pyrimidin-1-yl]piperidine-1-carboxylate], the half-inhibitory concentration (IC50) in assay [1] amounted to 557 nM; in assay [2] (Homo sapiens, LNCaP, 72 h) it was 30 nM; in assay [3] (Homo sapiens, 72 h), 280 nM.
On to `CNC(=O)Nc1cccc(-c2nc(N3CCOCC3)c3cnn(C4CCN(Cc5ccccc5)CC4)c3n2)c1` [Compound 482, N-{3-[1-(1-benzylpiperidin-4-yl)-4-morpholin-4-yl-1H-pyrazolo[3,4-d]pyrimidin-6-yl]phenyl}-N′-methylurea], for which the IC50 in assay [1] amounted to 1920 nM; in assay [2] (Homo sapiens, LNCaP, 72 h), 5800 nM; in assay [3] (Homo sapiens, 72 h), 6800 nM.
